The record followed here is patent publication US8017612B2, “Piperazine compound and use thereof as a HCV polymerase inhibitor” (priority 2006, dated 2011).

The target of assay [1] is T1, HCV polymerase (NS5B) type 1b (Hepatitis C virus genotype 1b, UniProt P26663).
T1 construct: a region encoding NS5B (J Virol 1991 March, 65(3), 1105-13, 544 amino acids after deletion of 47 amino acids on the C-terminal); 6xHis (C); made in house; host or cells: Escherichia coli
Nature of the assay: Assay of enzyme (HCV polymerase) inhibitory activity, type 1b enzyme. The format is biochemical, HCV BK strain (type 1b). Particulars: HCV polymerase inhibitory activity (IC50), 1b, type 1b enzyme 0.5 μg/ml, 25° C., 60 min. In a few lines:
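NS5B from HCV BK strain (type 1b), C-terminal 47 aa deleted, C-terminal His6-tagged, E. coli-expressed, 0.5 μg/ml, with ~450 nt substrate RNA carrying the 3′ UTR (polyU, 3′X) at 5 μg/ml. Incubation 60 min at 25 °C with 50 μM ATP/GTP/CTP, 2 μM UTP plus [3H]UTP, pH 7.5 Tris.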

For assay [2], the target named is T2, HCV polymerase (NS5B) type 1a (Hepatitis C virus genotype 1a, UniProt P26664).
T2 construct: made in house; host or cells: Escherichia coli (by the 'similar method' of the 1b enzyme)
Nature of the assay: Assay of enzyme (HCV polymerase) inhibitory activity, type 1a enzyme. Particulars: HCV polymerase inhibitory activity (IC50), 1a, type 1a enzyme 1.5 μg/ml, 25° C., 60 min. The format is biochemical, HCV type 1a (cloned from the blood of patients). In a few lines: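 Patient-derived type 1a NS5B (C-terminal 47-aa deletion, His-tagged, E. coli-expressed) at 1.5 μg/ml was reacted with 5 μg/ml 3′UTR-containing substrate RNA, 50 μM ATP/GTP/CTP, 2 μM UTP plus [3H]UTP, pH 7.5, 25° C for 60 min. TCA-precipitated RNA radioactivity was counted; IC50 from ± compound.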

Each structure is given as a SMILES string. Bounds are passed on as bounds.

In the case of `CC(C)(C)c1ccc(CNC(=O)[C@H]2CN(c3nc4c(s3)C(=O)NC4=O)CCN2S(=O)(=O)c2ccc(OC(F)(F)F)cc2)cc1` [Example 573, (R)-4-(4,6-dioxo-5,6-dihydro-4H-pyrrolo[3,4-d]thiazol-2-yl)-1-(4-trifluoromethoxy-benzenesulfonyl)-piperazine-2-carboxylic acid 4-tert-butyl-benzylamide], the IC50 in assay [1] and in assay [2] was less than 100 nM in each case.

As to `CCCc1ccc(CNC(=O)[C@H]2CN(c3cnc4cncnc4n3)CCN2S(=O)(=O)c2ccc(OC(F)(F)F)cc2)cc1` [Example 574, (R)-4-pteridin-7-yl-1-(4-trifluoromethoxy-benzenesulfonyl)-piperazine-2-carboxylic acid 4-propyl-benzylamide], the IC50 in assay [1] and in assay [2] was less than 100 nM throughout.

`CC(C)(C)c1ccc(CNC(=O)[C@H]2CN(c3cnc(CO)c(N)n3)CCN2S(=O)(=O)c2ccc(OC(F)(F)F)cc2)cc1` [Example 575, (R)-6′-amino-5′-hydroxymethyl-4-(4-trifluoromethoxy-benzenesulfonyl)-3,4,5,6-tetrahydro-2H-[1,2′]bipyrazinyl-3-carboxylic acid 4-tert-butyl-benzylamide]: the IC50 in assay [1] and in assay [2] was less than 100 nM throughout.

For `CCC(F)(F)c1ccc(CNC(=O)[C@H]2CN(c3nc(C)ns3)CCN2S(=O)(=O)c2ccc(OC(F)(F)F)cc2)cc1` [Example 576, (R)-4-(3-methyl-[1,2,4]thiadiazol-5-yl)-1-(4-trifluoromethoxy-benzenesulfonyl)-piperazine-2-carboxylic acid 4-(1,1-difluoro-propyl)-benzylamide], the IC50 in assay [1] and in assay [2] was less than 100 nM in each case.

On to `Cc1nc(N2CCN(S(=O)(=O)c3ccc(OC(F)(F)F)cc3)[C@@H](C(=O)NCc3ccc(C(C)(C)C)cc3)C2)sc1C#N` [Example 577, (R)-4-(5-cyano-4-methyl-thiazol-2-yl)-1-(4-trifluoromethoxy-benzenesulfonyl)-piperazine-2-carboxylic acid 4-tert-butyl-benzylamide], for which the IC50 in assay [1] and in assay [2] was less than 100 nM in each case.

`CC(C)(C)c1ccc(CNC(=O)[C@H]2CN(c3nc4c(s3)C(=O)NCC4)CCN2S(=O)(=O)c2ccc(OC(F)(F)F)cc2)cc1` [Example 578, (R)-4-(4-oxo-4,5,6,7-tetrahydro-thiazolo[5,4-c]pyridin-2-yl)-1-(4-trifluoromethoxy-benzenesulfonyl)-piperazine-2-carboxylic acid 4-tert-butyl-benzylamide]: the IC50 in assay [1] and in assay [2] was less than 100 nM in each case.

Take `CC(C)(C)c1ccc(CNC(=O)[C@H]2CN(c3cnc4c(n3)NC(=O)OC4)CCN2S(=O)(=O)c2ccc(OC(F)(F)F)cc2)cc1` [Example 579, (R)-4-(2-oxo-1,4-dihydro-2H-pyrazino[2,3-d][1,3]oxazin-7-yl)-1-(4-trifluoromethoxy-benzenesulfonyl)-piperazine-2-carboxylic acid 4-tert-butyl-benzylamide]: the IC50 in assay [1] and in assay [2] was less than 100 nM in each case.

On to `CCC(F)(F)c1ccc(CNC(=O)[C@H]2CN(c3ccncn3)CCN2S(=O)(=O)c2ccc(OC(F)(F)F)cc2)cc1` [Example 580, (R)-4-pyrimidin-4-yl-1-(4-trifluoromethoxy-benzenesulfonyl)-piperazine-2-carboxylic acid 4-(1,1-difluoro-propyl)-benzylamide], for which the IC50 in assay [1] and in assay [2] was less than 100 nM in each case.

Consider `CC(C)(C)c1ccc(CNC(=O)[C@H]2CN(c3ccnc(O)n3)CCN2S(=O)(=O)c2ccc(OC(F)(F)F)cc2)cc1` [Example 581, (R)-4-(2-hydroxy-pyrimidin-4-yl)-1-(4-trifluoromethoxy-benzenesulfonyl)-piperazine-2-carboxylic acid 4-tert-butyl-benzylamide], for which the IC50 in assay [1] and in assay [2] was less than 100 nM each time.

Take `CCOC(=O)c1sc(N2CCN(S(=O)(=O)c3ccc(OC(F)(F)F)cc3)[C@@H](C(=O)NCc3ccc(C(C)(C)C)cc3)C2)nc1N` [Example 582, 4-amino-2-[(R)-3-(4-tert-butyl-benzylcarbamoyl)-4-(4-trifluoromethoxy-benzenesulfonyl)-piperazin-1-yl]-thiazole-5-carboxylic acid ethyl ester]: the IC50 in assay [1] and in assay [2] was 100 to 1000 nM each time.

Consider `Cc1nc(N2CCN(S(=O)(=O)c3ccc(OC(F)(F)F)cc3)[C@@H](C(=O)NCc3ccc(C(C)(C)C)cc3)C2)sc1-c1nnn[nH]1` [Example 583, (R)-4-[4-methyl-5-(1H-tetrazol-5-yl)-thiazol-2-yl]-1-(4-trifluoromethoxy-benzenesulfonyl)-piperazine-2-carboxylic acid 4-tert-butyl-benzylamide], for which the 50% inhibitory concentration (IC50) in assay [1] and in assay [2] was less than 100 nM in each case.

Turning to `CCC(F)(F)c1ccc(CNC(=O)[C@H]2CN(c3ccnc(N)n3)CCN2S(=O)(=O)c2ccc(OC(F)(F)F)cc2)cc1` [Example 584, (R)-4-(2-amino-pyrimidin-4-yl)-1-(4-trifluoromethoxy-benzenesulfonyl)-piperazine-2-carboxylic acid 4-(1,1-difluoro-propyl)-benzylamide], the IC50 in assay [1] and in assay [2] was less than 100 nM throughout.

Take `CCC(F)(F)c1ccc(CNC(=O)[C@H]2CN(c3nccc(N)n3)CCN2S(=O)(=O)c2ccc(OC(F)(F)F)cc2)cc1` [Example 585, (R)-4-(4-amino-pyrimidin-2-yl)-1-(4-trifluoromethoxy-benzenesulfonyl)-piperazine-2-carboxylic acid 4-(1,1-difluoro-propyl)-benzylamide]: the IC50 in assay [1] and in assay [2] was 100 to 1000 nM each time.

As for `CCC(F)(F)c1ccc(CNC(=O)[C@H]2CN(c3cnc(C(N)=O)cn3)CCN2S(=O)(=O)c2ccc(OC(F)(F)F)cc2)cc1` [Example 586, (R)-4-(4-trifluoromethoxy-benzenesulfonyl)-3,4,5,6-tetrahydro-2H-[1,2′]bipyrazinyl-3,5′-dicarboxylic acid 5′-amide 3-[4-(1,1-difluoro-propyl)-benzylamide]], the IC50 in assay [1] and in assay [2] was less than 100 nM in each case.

Take `CC(C)(C)OC(=O)N1CCc2nc(N3CCN(S(=O)(=O)c4ccc(OC(F)(F)F)cc4)[C@@H](C(=O)NCc4ccc(C(C)(C)C)cc4)C3)sc2C1` [Example 587, 2-[(R)-3-(4-tert-butyl-benzylcarbamoyl)-4-(4-trifluoromethoxy-benzenesulfonyl)-piperazin-1-yl]-6,7-dihydro-4H-thiazolo[5,4-c]pyridine-5-carboxylic acid tert-butyl ester]: the IC50 (commonly the concentration needed to halve the response being measured) in assay [1] was less than 100 nM; in assay [2], 100 to 1000 nM.

Turning to `CC(C)(C)c1ccc(CNC(=O)[C@H]2CN(c3nc4c(s3)CNCC4)CCN2S(=O)(=O)c2ccc(OC(F)(F)F)cc2)cc1` [Example 588, (R)-4-(4,5,6,7-tetrahydro-thiazolo[5,4-c]pyridin-2-yl)-1-(4-trifluoromethoxy-benzenesulfonyl)-piperazine-2-carboxylic acid 4-tert-butyl-benzylamide], the IC50 in assay [1] and in assay [2] was less than 100 nM in each case.
